Data on two molecules can be found in patent publication US11981669B2, “1,7-naphthyridine derivative and preparation method and use therefor” (CSPC ZHONGQI PHARMACEUTICAL TECHNOLOGY (SHIJIAZHUANG) CO., …, priority 2018, dated 2024).

Marks after values point to notes of the source that are not given here.

In series [1] the target is PHD3 (Homo sapiens (Human), UniProt Q9H6Z9). Description: PHD enzyme assay (Eu-VBC TR-fluorescence). The format is biochemical. The procedure: (§1) VHL/elongin B/elongin C were constructed, expressed and purified, and VHL was labeled. PHD1, PHD2 and PHD3 were constructed, expressed and purified. VBC protein was labeled with DELFIA Eu-Labeling Kit. A NeutrAvidin 96-well plate was blocked after the addition of 200 μL Blocker Casein to each well, followed by incubation for 30 min. Each well was washed 3 times by adding 200 μL of washing buffer each time. A 200 nM HIF-1a 556-574 solution was prepared with washing buffer, and 100 μL of the solution was added to each well, followed by incubation for 60 min. Each well was washed 3 times by adding 200 μL of washing buffer each time. A 1 mM Biotin solution was prepared with Blocker Casein, and 100 μL of the solution was added to each well, followed by incubation for 30 min. Each well was washed 3 times by adding 200 μL of washing buffer each time. A 20× compound solution was prepared with PHD reaction buffer, with the final concentration of DMSO being 1%. PHD solutions were prepared with PHD reaction buffer, and the concentrations of PHD1, 2, and 3 solutions were 10 ng/μL, 5 ng/μL, and 15 ng/μL, respectively. 95 μL of the PHD solution was added to each compound well, followed by the addition of 5 μL of the compound solution, 95 μL of the PHD solution was added to each full active well, followed by the addition of 5 μL of the PHD reaction buffer; and 100 μL of the PHD reaction buffer was added to each blank well. After mixing homogeneously, the wells were incubated for 60 min. Each well was washed 3 times by adding 200 μL of washing buffer each time A 1 ng/μL Eu-VBC solution was prepared with Eu-VBC binding buffer, and 100 μL of the solution was added to each well, followed by incubation for 60 min. Each well was washed 6 times by adding 200 μL DELFIA Wash Concentrate each time. 100 μL DELFIA Enhancement Solution was added to each well. A microplate reader was used to read TR-Fluorescence at Ex340 and Em615. The flurescence of the sample wells was recorded as FLUsample, the flurescence of the full active wells was recorded as FLU100%, and the flurescence of the blank well was recorded as FLU0%.
PHD3, sequence (Q9H6Z9 whole entry): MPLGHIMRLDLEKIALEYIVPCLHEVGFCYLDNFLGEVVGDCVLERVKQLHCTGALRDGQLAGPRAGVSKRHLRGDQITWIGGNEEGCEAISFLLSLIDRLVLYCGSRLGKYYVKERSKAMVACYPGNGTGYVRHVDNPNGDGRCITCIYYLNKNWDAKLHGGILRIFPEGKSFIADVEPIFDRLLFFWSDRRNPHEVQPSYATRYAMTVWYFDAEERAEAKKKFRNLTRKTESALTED

For series [2], the target named is PHD1 (Homo sapiens (Human), UniProt Q96KS0). Description: PHD enzyme assay (Eu-VBC TR-fluorescence). The format is biochemical. How it is done: as §1
PHD1, sequence (Q96KS0 whole entry): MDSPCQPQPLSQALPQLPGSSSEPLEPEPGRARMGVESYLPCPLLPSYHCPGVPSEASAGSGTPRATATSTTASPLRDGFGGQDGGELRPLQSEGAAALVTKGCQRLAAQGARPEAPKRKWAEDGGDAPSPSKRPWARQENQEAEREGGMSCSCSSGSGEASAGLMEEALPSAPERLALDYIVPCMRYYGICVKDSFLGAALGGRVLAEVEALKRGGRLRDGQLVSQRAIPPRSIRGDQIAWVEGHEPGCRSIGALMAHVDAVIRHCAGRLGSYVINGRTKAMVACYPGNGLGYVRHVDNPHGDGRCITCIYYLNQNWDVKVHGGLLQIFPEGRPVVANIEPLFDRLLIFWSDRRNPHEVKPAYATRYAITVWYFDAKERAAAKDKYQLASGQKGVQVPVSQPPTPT
Series [3] concerns rats with residual kidney. Description: SD rat residual kidney experiment. The format is in vivo, SD rats. Set-up: Hematocrit / Alanine aminotransferase / Glutamic-oxalacetic transaminase: unit not given here. As to conditions: for Red blood cells / Alanine aminotransferase / Glutamic-oxalacetic transaminase / Hematocrit / Hemoglobin / Hepcidin: three times each week, 15 times, x ± sd; for Red blood cells: blood 24 hours after last administration; for Effect on glutamic-oxalacetic transaminase / Effect on liver glutamic-pyruvic aminotransferase: compared with the blank control group. The procedure:
79 SD rats were subjected to residual kidney surgery after anesthesia (left kidney was resected, one third of the right kidney was left, and the resected kidney part was weighed to confirm the surgical error). After 4 weeks, 45 surviving rats were subjected to blood cell dection and then assigned according to the HCT value 37 rats in good condition were selected and divided into the following groups: Link-118 (5, 10 mg/kg), Link-121 (5, 10 mg/kg), and FG-4592 (10 mg/kg), 6 rats in each treatment group, and 7 in the model group. 4 rats were assigned to the blank control group. The rats were administered three times each week (administered on Monday, Wednesday, and Friday), for 15 times, and blood was taken 24 hours after the last administration (tested by blood routine, blood biochemistry, hepcidin kit).

As to `O=C(O)CNC(=O)c1nc(Br)c2nc(Oc3ccccc3)ccc2c1O` [Link-121, 2-(2-phenoxy-5-hydroxy-8-bromo-1,7-naphthyridine-6-formamido) Acetic Acid], in series [1], the “Effect on PHD3 compared with compounds of Comparative Examples 1-3” value is “better effect” and inhibition was half-maximal at 95.6 nM (IC50). For the same molecule, in series [2], the “Effect on PHD1 compared with compounds of Comparative Examples 1-3” value was “better effect” and the IC50 was 40.3 nM. For the same molecule, in series [3] (5 mg/kg), the Red blood cells is listed as 7.68 ± 0.46 10^12/L, the Alanine aminotransferase turned out to be 56.40 ± 25.89, the Glutamic-oxalacetic transaminase was determined as 130.80 ± 3126 and the Hematocrit is listed as 43 ± 2.26. Also, in series [3] (5 mg/kg), the Hemoglobin stood at 150.60 ± 8.62 g/L and the Hepcidin came to 2.8289 ± 0.7597 ng/mL. In series [3] (10 mg/kg), the Red blood cells is on record as 8.12 ± 1.11 10^12/L, the Alanine aminotransferase came out at 47.5 ± 7.23, the Glutamic-oxalacetic transaminase was determined as 12125 ± 16.11 and the Hematocrit was 46.86 ± 629. In series [3] (10 mg/kg), the Hemoglobin came to 163.40 ± 24.44 g/L and the Hepcidin was determined as 2.5494 ± 1.3532 ng/mL. For the same molecule, in series [3], the “Effect on glutamic-oxalacetic transaminase” value is given as “no significant effect” and the “Effect on liver glutamic-pyruvic aminotransferase” value is listed as “no significant effect”. Moreover, in series [3] (compared with the model group), the “Effect on HCT in rats with residual kidney” value was “significantly increase”, the “Effect on HGB in rats with residual kidney” value was “significantly increase” and the “Effect on hepcidin in rats with residual kidney” value was “reduced”.

Regarding `O=C(O)CNC(=O)c1nc(Cl)c2nc(Oc3ccccc3)ccc2c1O` [Link-118, 2-(2-phenoxy-5-hydroxy-8-chloro-1,7-naphthyridine-6-formamido) Acetic Acid], in series [1], the “Effect on PHD3 compared with compounds of Comparative Examples 1-3” value was “better effect” and 72.8 nM corresponded to half-maximal inhibition (IC50). In series [2], the “Effect on PHD1 compared with compounds of Comparative Examples 1-3” value is “better effect” and the IC50 was found to be 46.9 nM. In series [3] (5 mg/kg), the Red blood cells was 8.05 ± 0.46** 10^12/L, the Alanine aminotransferase was 37.83 ± 1.60, the Glutamic-oxalacetic transaminase was 116.50 ± 14.43 and the Hematocrit is listed as 45.88 ± 2.87. In series [3] (5 mg/kg), this molecule displayed a Hemoglobin of 164 ± 10.99 g/L and a Hepcidin of 2.5808 ± 1.0573 ng/mL. Also, in series [3] (10 mg/kg), the Red blood cells was 9.61 ± 1.06** 10^12/L, the Alanine aminotransferase was found to be 35.50 ± 6.28, the Glutamic-oxalacetic transaminase is recorded as 113.67 ± 2123 and the Hematocrit stood at 57.2 ± 6.67. In series [3] (10 mg/kg), this molecule had a Hemoglobin of 203.83 ± 22.83 g/L and a Hepcidin of 2.4472 ± 0.513 ng/mL. In series [3], the “Effect on glutamic-oxalacetic transaminase” value is on record as “no significant effect” and the “Effect on liver glutamic-pyruvic aminotransferase” value was “no significant effect”. Besides, in series [3] (compared with the model group), the “Effect on HCT in rats with residual kidney” value is “significantly increase”, the “Effect on HGB in rats with residual kidney” value is “significantly increase”, the “Effect on RBC in rats with residual kidney” value is recorded as “significantly increase” and the “Effect on hepcidin in rats with residual kidney” value was “significantly inhibit”. Also, in series [3] (rats with residual kidney), the “Efficacy compared with FG-4592 at the same dose” value is on record as “better than that of FG-4592”.

As usually defined, the IC50 is the concentration at which inhibition is half-maximal.
